US12280121B2, “Immunoconjugates and methods” (Immunome, Inc., priority 2021, dated 2025)
Structures can show the parent of a compound that is named as a salt. Where two headings read alike, the source gives them in different places. Non-standard residues stand in square brackets, D forms with d. Residues, ends and D or L forms follow the SMILES beside them. *: point of attachment. Dolaproine = CO[C@@H]([C@@H]1CCCN1)[C@@H](C)C(=O)O; Dil = CC[C@H](C)[C@H](NC)[C@@H](CC(=O)O)OC; X1 = C[C@@H](N*)[C@@H](O)c1ccccc1; NMeV = CN[C@H](C(=O)O)C(C)C

Assays:
[1] = Human liver microsome clearance (HLM CL); type: in vitro ADME
Procedure: Working solution was prepared by adding 5 μL of compound and control stock solution (10 mM in dimethyl sulfoxide, DMSO) to 495 μL of acetonitrile (ACN) (intermediate solution concentration: 100 μM, 99% CAN and 1% DMSO. The appropriate concentrations of microsome working solutions were prepared in 100 mM potassium phosphate buffer. After reaction plates containing mixtures of compound and microsomes were pre-incubated at 37° C. for 10 min, […] of 2 mM of NADPH and 2 mM of MgCl2 solution was added to start the reaction. The final concentrations of incubation medium were as follows: microsome—0.5 mg protein/mL, test compound/control […], NADPH—1 mM, MgCl2 —1 mM, acetonitrile 0.99%, DMSO 0.01%. Incubations were performed at 37° C. for 60 min. Samples were taken out at TO, T5, T15, T30, T45 and T60, which was added intermediately to the ice-cold stop solution (acetonitrile with 200 ng/mL of tobutamide and labetalol as internal standard) (125 μl), shaken for 10 min, centrifuged at 4000 rpm for 20 min at 4° C. Analytical plates were analyzed by LCMS.
(§1) Human liver microsome clearance assay assess metabolism by the cytochrome P450 system (phase I enzymes). These enzymes oxidize substrates by incorporating oxygen atoms into hydrocarbons, thus causing the introduction of hydroxyl groups, or N- O- and S-dealkylation of substrates and forming more polar products easier to be cleared. Human hepatocyte clearance assay measures more broadly the overall cellular metabolism of the test compound (phase I and phase II enzyme pathways). Phase II enzymes catalyze the conjugation reaction of xenobiotic metabolites and charged species, such as glutathione, sulfate, glycine, or glucuronic acid to form even more polar compounds for easier clearance.

Jeko-1 [2] = assay: CTG assay of ROR-1 ADCs and toxins, JeKo-1; type: cell-based
Procedure: FIG. 33 illustrates a CTG assay wherein ROR+ (JeKo-1) cells were incubated with the ADCs generated as described in FIG. 32 in serial three-fold dilutions and cell viability was assessed after 72 hours.
(§2) The CTG assay is a method of determining the number of viable cells in culture based on quantitation of the ATP present, an indicator of metabolically active cells. The cell assay requires the addition of a single reagent, Cell Titer Glo, in which cells are lysed and generation of a luminescent signal is produced. The luminescent signal is proportional to the amount of ATP present. The amount of ATP is directly proportional to the number of cells present in culture. For our assay, cells were ensured to be in log-phase for either Jeko-1 or MDA-MB-468. Cells were transferred to 96 wells and treated with compounds in three-fold serial dilution starting from 1 μM to 0.0000508 μM (10 points dilution), for 72 h. Cell viability was analyzed with CellTiter-Glo® Luminescent Cell Viability Assay (Promega) following manufactures' instruction. Percentage of viable cells in each compound concentration was determined by normalizing with the luminescence of vehicle control and plotted into percentage of viability versus dose response curve by nonlinear fit in GraphPad Prism software.
Novel ROR-1 antibody-drug conjugates (ADCs) were evaluated by CTG Assay in a similar manner as was described in Example 24 for screening of payloads. […] Briefly ROR+(JeKo-1/MDA-MB-468) or ROR− (Ramos) cells were transferred to 96 wells and treated with the ADCs in three-fold serial dilution starting from […] (10 points dilution), for 72 h. Cell viability was analyzed with CellTiter-Glo® Luminescent Cell Viability Assay (Promega) following the manufactures' instructions (FIG. 33). The percentage of viable cells at each ADC concentration was determined by normalizing with the luminescence of vehicle control and plotted into percentage of viability versus dose response curve by nonlinear fit in GraphPad Prism software.

MDA-MB-468 = assay: CTG assay (CellTiter-Glo cell viability), MDA-MB-468, payload compounds; type: cell-based; details: Homo sapiens, MDA-MB-468; 72 h, CellTiter-Glo; read-out: MDA-MB-468 IC50
Excerpt: as §2

[3] = PAMPA (Parallel Artificial Membrane Permeability Assay); type: physicochemical
Excerpt: PAMPA is a method which determines the permeability of substances from a donor compartment, through a lipid-infused artificial membrane into an acceptor compartment. See Ottaviani, G.; Martel, S.; Carrupt, P-A. “Parallel Artificial Membrane Permeability Assay: A New Membrane for the Fast Prediction of Passive Human Skin Permeability”, Journal of Medicinal Chemistry, 2006, 49 (13), 3948-3954). A multi-well microtitre plate is used for the donor and a membrane/acceptor compartment is placed on top; the whole assembly is commonly referred to as a “sandwich”. At the beginning of the test, the drug is added to the donor compartment, and the acceptor compartment is drug-free. After an incubation period which may include stirring, the sandwich is separated, and the amount of drug is measured in each compartment. Mass balance allows calculation of drug that remains in the membrane.
The PAMPA was performed by Pion Inc using the GIT-0 lipid and 5 μM donor solution in pH 5.0 and pH 7.4 PRISMA buffer (containing 0.05% DMSO). The higher PAMPA data has been associated with better bystander killing. (Ogitani Y.; Hagihara K.; Oitate, M.; Naito, H.; Agatsuma T. “Bystander killing effect of DS-8201a, a novel anti-human epidermal growth factor receptor 2 antibody-drug conjugate, in tumors with human epidermal growth factor receptor 2 heterogeneity” Cancer Science, 2016, 107 (7), 1039-1046).

Jeko-1 [4] = assay: CTG assay (CellTiter-Glo cell viability), Jeko-1, payload compounds; type: cell-based; details: Homo sapiens, JeKo-1; 72 h, CellTiter-Glo; read-out: JeKo-1 IC50
Excerpt: as §2

[5] = Human hepatocyte clearance (HHEP CL); type: in vitro ADME; design: CLint scaled / half-life: dose or concentration left out as unconfirmed; details: both sexes
Procedure: Suspensions of human hepatocytes (from 10 mixed gender human donors, final concentration 0.5×10^6 cell/mL) in Williams' E medium were incubated for 90 min with a test compound (0.90% acetonitrile and 0.10% DMSO, final concentration […]) and positive controls (7-Ethoxycoumarin, 7-Hydroxycoumarin, 0.90% acetonitrile and 0.10% DMSO, final concentration […]), with constant shaking at about 600 rpm at 37° C. in an incubator at 5% CO2 and 95% humidity. The total volume of incubation was 200 μl. A sample ([…]) was taken out at TO, 15, 30, 60 and 90 min, which was added intermediately to the ice-cold stop solution (acetonitrile with 200 ng/mL of tobutamide and labetalol as internal standard) (125 μl), and vortexed at 500 rpm for 10 min, centrifuged at 3220×g for 20 min at 4° C. Analytical plates are sealed and stored at 4° C. until LCMS analysis. Viability of hepatocytes at pre-incubation was determined to be 84.5%.
as §1

[6] = Homo sapiens, Jeko-1, average of run 1 and run 2, read-out: Avg. IC50
[7] = Homo sapiens, Jeko-1 P3, run 1, 72 h, read-out: Jeko-1 P3 (RUN1) IC50
[8] = Homo sapiens, Jeko-1 P4, run 2, 72 h, read-out: Jeko-1 P4 (RUN2) IC50

Structure (SMILES)	CLint scaled ([1]; human, microsomes) [mL/min/kg]	half-life ([1]; human, microsomes) [min]	IC50 (Jeko-1 [2]; [6]) [nM]	IC50 (Jeko-1 [2]; [7]) [nM]	IC50 (Jeko-1 [2]; [8]) [nM]	IC50 (MDA-MB-468) [nM]	Papp at 5 μM ([3]; pH 5) [×10⁻⁶ cm/s]	Papp at 5 μM ([3]; pH 7.4) [×10⁻⁶ cm/s]	IC50 (Jeko-1 [4]) [nM]	CLint scaled ([5]; human, hepatocytes) [mL/min/kg]	half-life ([5]; human, hepatocytes) [min]	IC50 (Jeko-1 [2]; Jeko-1, average of run 1 and run 2, read-out: Avg. IC50) [nM]	IC50 (Jeko-1 [2]; Jeko-1 P3, run 1, 72 h, read-out: Jeko-1 P3 (RUN1) IC50) [nM]	IC50 (Jeko-1 [2]; Jeko-1 P4, run 2, 72 h, read-out: Jeko-1 P4 (RUN2) IC50) [nM]	half-life ([1]; human liver microsomes 0.5 mg protein/mL, NADPH, 60 min, read-out: HLM (T1/2)) [min]	CLint scaled ([1]; human liver microsomes 0.5 mg protein/mL, NADPH, 60 min, read-out: HLM Cl (human liver microsome clearance)) [mL/min/kg]	Papp at 5 μM ([3]; pH 5.0 PRISMA buffer, GIT-0 lipid, 5 μM donor solution, read-out: PAMPA Pe pH 5.0) [×10⁻⁶ cm/s]	Papp at 5 μM ([3]; pH 7.4 PRISMA buffer, GIT-0 lipid, 5 μM donor solution, read-out: PAMPA Pe pH 7.4) [×10⁻⁶ cm/s]	half-life ([5]; human hepatocytes, 90 min incubation, read-out: HHEP (T1/2)) [min]	CLint scaled ([5]; human hepatocytes, 90 min incubation, read-out: HHEP Cl (human hepatocytes intrinsic clearance)) [mL/min/kg]
CC[C@@]1(O)C(=O)OCc2c1cc1n(c2=O)Cc2c-1nc1cc(F)c(C)c3c1c2[C@@](C)(NC(=O)CO)CC3 [Compound 9-74, N-((1S,9S)-9-ethyl-5-fluoro-9-hydroxy-1,4-dimethyl-10,13-dioxo-1,2,3,9,10,12,13,15-octahydrobenzo[de]pyrano[3′,4′:6,7]indolizino[1,2-b]quinolin-1-yl)-2-hydroxyacetamide]	22.7	54.9	3.1	2.4	3.7	57.7	36.1	4.4	4.1	57.5	67									
CC[C@@]1(O)C(=O)OCc2c1cc1n(c2=O)Cc2c-1nc1cc(F)c(C)c3c1c2[C@@](C)(N)CC3 (single isomer, unassigned) [Compound 8-71, hydrochloride]	41.9	30				6.1	67.7	8.6	0.44	81.7	47									
CC[C@H](C)[C@@H]([C@@H](CC(=O)N1CCC[C@H]1[C@H](OC)[C@@H](C)C(=O)N[C@H](C)[C@@H](O)c1ccccc1)OC)N(C)C(=O)[C@@H](NC(=O)[C@@H](NC)C(C)C)C(C)C [MMAE, reference compound] (H-[NMeV]V[Dil][Dolaproine]-X1)												0.2	0.2	0.2						
CC[C@@]1(O)C(=O)OCc2c1cc1n(c2=O)Cc2c-1nc1cc(F)c(C)c3c1c2[C@@](C)(NCCO)CC3.Cl [Compound 16-95, (1S,9S)-9-ethyl-5-fluoro-9-hydroxy-1-((2-hydroxyethyl)amino)-1,4-dimethyl-2,3,12,15-tetrahydrobenzo[de]pyrano[3′,4′:6,7]indolizino[1,2-b]quinoline-10,13(1H,9H)-dione hydrochloride]						13.7			1.3						49.1	25.4	63.1	5.5	130	29.6
CC[C@@]1(O)C(=O)OCc2c1cc1n(c2=O)Cc2c-1nc1cc(F)c(C)c3c1c2[C@@H](OCCO)CC3 (single isomer, unassigned) [Compound 5-48]	17.4	71.7	0.5	0.5	0.5	8.3	69	9	0.68	75.5	51.1									
CC[C@@]1(O)C(=O)OCc2c1cc1n(c2=O)Cc2c-1nc1cc(F)c(C)c3c1c2[C@](C)(NC(=O)CO)CC3 [Compound 10-75, N-((1R,9S)-9-ethyl-5-fluoro-9-hydroxy-1,4-dimethyl-10,13-dioxo-1,2,3,9,10,12,13,15-octahydrobenzo[de]pyrano[3′,4′:6,7]indolizino[1,2-b]quino-lin-1-yl)-2-hydroxyacetamide]	27.2	45.9				467	46.8	3.9	58.1	40.8	94.4									
CC[C@@]1(O)C(=O)OCc2c1cc1n(c2=O)Cc2c-1nc1cc(F)c(C)c3c1c2[C@@H](O)CC3 (single isomer, unassigned) [Compound 3-35]	20.2	61.8				4.7	66.1	11.1	0.46	50.4	76.5									
CC[C@@]1(O)C(=O)OCc2c1cc1n(c2=O)Cc2c-1nc1cc(F)c(C)c3c1c2[C@H](O)CC3 (single isomer, unassigned) [Compound 3-34]	32.1	38.8				6	78.3	8.2	0.59	79.2	48.7									
